# Experimental data taken from patent US20140193910A1, “METHODS FOR PRODUCING PANCREATIC PRECURSOR CELLS AND USES THEREOF” (priority 2011, published 2014).
# Tests used:
# Type in all cases: cell-based
# [1] = tested on: human pancreatic stem cells; assay: Cell clones from second digestion of pancreas tissue, DMEM-10% DFBS + GrNP supplementation; settings: for #clones after 1 passage, Method 1 / #clones after 1 passage, Method 2: 1 mM supplement, second digestion; for Enhancement of clonal cell proliferation: Method 1 and Method 2
# Procedure: (§1) More specifically, after mincing of intact pancreatic tissue (harvested by the National Disease Research Interchange from donors within 4 hours of death), the pancreatic tissue was digested with liberase H (Roche). Two successive digestions of 20 and 30 minutes were performed at 37° C. in serum-free Dulbecco's modified Eagle's medium (DMEM) containing 1 mg/mL LIBERASE H. The cells and cell clusters released after each of these digestions were cultured.
# In one embodiment of the methods described herein, termed herein as “Method 1,” twice digested pancreas digestion products can be cultured in DMEM supplemented with 10% dialyzed fetal bovine serum (DFBS).
# (§2) In another embodiment of the methods described herein, termed herein as “Method 2,” the same two successive digestion procedure can be used, but the final tissue fragments remaining after the second digestion can also be cultured independently. For this embodiment of the methods, CMRL-1066 medium can be used as a second base culture medium in parallel with DMEM for all cultured pancreatic cell and tissue preparations. In one such example of Method 2, CMRL-1066 medium was supplemented with 10% DFBS and 2 mM L-glutamine and subdivided for the same GrNP supplementations as indicated for DMEM-10% DFBS medium in Method 1.
# [2] = tested on: human pancreatic stem cells; assay: Population doubling analysis of pooled polyclonal strains (Method 2, CMRL-1066)
# Procedure: Growth properties of human pancreatic stem cell strains. Four weeks after replating, clones were picked and expanded. Cells left after clonal isolations from the CMRL-1066 conditions were pooled and grown. They were trypsinized and counted on a regular basis, and population doublings were calculated accordingly. The number of clones detected for each condition is represented on the top two histograms. The bottom histogram represents the percentage of harvested clones that continued their expansion after isolation.
# After isolating clonal cell colonies produced by the embodiment of the methods described herein termed Method 2 (Table 2) for expansion, the remaining unselected cell clones were pooled and expanded as well (i.e., polyclonal strains). Population doubling analyses were performed based on the passage of the expansion pool cultures.
# [3] = tested on: human pancreatic stem cells; assay: Cell clones from twice-digested fragments of pancreas tissue, CMRL-1066-10% DFBS + GrNP supplementation; settings: for Clone expansion rate (percent of isolated clones that could be expanded to full cultures) / #clones after 1 passage, Method 2: 1 mM supplement; for Clone expansion rate (percent of isolated clones that could be expanded to full cultures) / #clones after 1 passage, Method 2 / Increase in number of clones (primary cell colonies) over control: CMRL-1066-10% DFBS; for #clones after 1 passage, Method 2: twice-digested tissue fragments; for Increase in number of clones (primary cell colonies) over control: Method 2; for Increase in proportion of clones that could be further expanded to full cultures: CMRL-1066 medium, tissue fragments, versus control
# Procedure: as §1, §2
# Accordingly, in some embodiments of the methods described herein, the culture medium comprise Xn, Xs, or a combination thereof.
Structure (SMILES),"#clones after 1 passage, Method 1 [1]","#clones after 1 passage, Method 2 [1]",Enhancement of clonal cell proliferation [1],Cell expansion corresponding to the population doublings ([2]; polyclonal strains) [fold],"Population doublings of polyclonal strains ([2]; supplemented medium, expansion pool cultures) [population doublings]",Clone expansion rate (percent of isolated clones that could be expanded to full cultures) [3] [%],"#clones after 1 passage, Method 2 [3]",Increase in number of clones (primary cell colonies) over control [3],Increase in proportion of clones that could be further expanded to full cultures [3] [fold]
"O=c1[nH]cnc2nc[nH]c12 [Hx, hypoxanthine]",22,13,more effective in enhancing clonal cell proliferation than Xn,,,,,,
"O=c1[nH]c(=O)c2[nH]cnc2[nH]1 [Xn, xanthine]",3,5,not statistically different than control,~1e+06,20,13,54,approximately 50%,3.4
"O=c1[nH]c(=O)c2ncn([C@@H]3O[C@H](CO)[C@@H](O)[C@H]3O)c2[nH]1 [Xs, xanthosine]",13,12,more effective in enhancing clonal cell proliferation than Xn,,,10,59,approximately 50%,2.6
